Values of other authors in patent US20230158047A1, “METHODS AND COMPOSITIONS FOR TREATING PROSTATE CANCER” (Tavanta Therapeutics Hungary Incorporated, priority 2020, published 2023).

Test system: PSA levels
Details: phase 3, patients who failed prior chemotherapy with taxanes

In the case of `CC(=O)O[C@H]1CC[C@@]2(C)C(=CC[C@@H]3[C@@H]2CC[C@]2(C)C(c4cccnc4)=CC[C@@H]32)C1` [abiraterone acetate, 3β-acetoxy-17-(3-pyridyl)-androsta-5,16-diene], the “patients with at least a 50% decline from baseline in PSA levels” value is given as 38%.
